Experimental data: patent US7906709B2, “Methods for breeding glyphosate resistant plants and compositions thereof” (priority 2006, dated 2011)

Key:
[1] = test system: S line of rigid ryegrass; assay: Dose response study of plant injury, S line; assay type: in vivo, Lolium rigidum; settings: visual injury 4 WAT, 1× = 1.12 kg ai ha^-1
Procedure: A dose response study is conducted on the R and S lines of rigid ryegrass. The rates of glyphosate applied varied from 0.125×, 0.25×, 0.5×, 1×, 2×, 4×, 6×, 8×, 10×, to 12×. The sprayed solutions and application procedures are similar to those described previously. Plants are evaluated for visual injury at 4 WAT. Data (4 WAT) from two experiments with 8 replications of each treatment are analyzed by non-linear regression and fitted to a log-logistic model:
[formula] where y is predictive of plant injury (% of control), X50=dose required to obtain 50% injury and b is the slope at X50.

[2] = test system: F1 hybrid of perennial ryegrass and glyphosate resistant rigid ryegrass; assay: Glyphosate sensitivity of F1 hybrid population; assay type: in vivo, Lolium perenne x Lolium rigidum; settings: 50 plants, 3 weeks after treatment
Procedure: The R biotype of California rigid ryegrass, which survived 8× glyphosate and perennial ryegrass, which died from 0.25× of glyphosate, are grown individually in 950-ml pots with professional planting mix media as discussed above. Plants are maintained in greenhouse with supplemental light, watered daily, and fertilized weekly with NPK water soluble fertilizer (20-20-20). At the mature vegetative stage, perennial ryegrass plants are vernalized in the growth chamber with the temperature 4 ±1 C, 8 h day and 16 h night. After 4 weeks vernalization, the plants are removed and maintained in greenhouse until flowering.
Seed heads of perennial ryegrass are designated to be pollinated by California rigid ryegrass also vice-verse because both of the species are allogamus plants. Both are known to be self-incompatible. After the emergence of seed heads and before the pollen opened, one plant from each species is isolated in one room of greenhouse. To provide conditions for cross-pollination, perennial ryegrass and rigid ryegrass plants are placed next to each other. During the pollination period, plants are maintained regularly as mentioned previously until the seed reached the maturity. The successful hybridization is indicated with the full development of mature seeds which had brown color. Seeds are harvested from both perennial and rigid ryegrass. Seeds from perennial ryegrass hybrids are used for further evaluation.
Seeds of the F1 hybrid harvested from perennial ryegrass are grown and maintained as individual plants in the greenhouse as described previously. At the tillering stage, 50 plants for each of glyphosate rates (0.25, 0.5, 1.0, 1.5, 2.0, 4.0, and 8×, where x=1.12 kg ha^−1) are evaluated for sensitivity or resistance. Glyphosate is delivered in 187 L ha^−1 spray solutions with 172.5 kPa pressure using a flat fan nozzle. The dead or survivors in each treatment are counted 3 weeks after treatment and the plants with the highest level of resistance are further maintained and intercrossed to generate F2.

[3] = test system: F2 population from cross between perennial ryegrass and glyphosate resistant rigid ryegrass; assay: Glyphosate sensitivity of F2 hybrid population; assay type: in vivo, Lolium perenne x Lolium rigidum; settings: 0.5× glyphosate; 3 WAT
Procedure: The population of F2 is evaluated for glyphosate sensitivity with 0.5× glyphosate. Severely injured and dead plants are recorded 3 weeks after treatment (WAT) and are designated similar to the sensitive (S) parent. The survivors are re-acclimated for further evaluation at 8× glyphosate. The survivors from 8× glyphosate are designated similar to resistant (R) parent. The rest of the population that responded between S and R are identified as intermediate (I).

[4] = Glyphosate 0.25 kg ha^-1 as headed
[5] = Glyphosate 0.50 kg ha^-1 as headed
[6] = Glyphosate 1 kg ha^-1 as headed
[7] = Glyphosate 4 kg ha^-1 as headed
[8] = Glyphosate 8 kg ha^-1 as headed

O=C(O)CNCP(=O)(O)O [glyphosate, N-(phosphonomethyl) glycine]
glyphosate rate for 50% injury [1]: 0.1 ×
Severely injured and dead [2, 4]: 0%
Survivors [2, 4]: 100%
Severely injured and dead [2, 5]: 6%
Survivors [2, 5]: 94%
Severely injured and dead [2, 6]: 10%
Survivors [2, 6]: 90%
Survivors ([2]; Glyphosate 2 kg ha^-1 as headed (2× in text)): 90%
Survivors ([2]; Glyphosate 2 kg ha^-1 as headed (2× in text), listed as Glyphosate): 90**) Percent
Severely injured and dead ([2]; Glyphosate 2 kg ha^-1 as headed): 10%
Severely injured and dead [2, 7]: 100%
Survivors [2, 7]: 0%
Severely injured and dead [2, 8]: 100%
Survivors [2, 8]: 0%
percentage of the sensitive plants in F2 [3]: 16%
